From the supplement of paper PMC10307832

How the values were obtained:
Assay in all cases: relative viability (nuclei count vs DMSO), 5 days (fraction); higher = more cells survive
Shikonin + Olaparib = compound: CC(C)=CC[C@@H](O)C1=CC(=O)c2c(O)ccc(O)c2C1=O [Shikonin] + O=C(c1cc(Cc2n[nH]c(=O)c3ccccc23)ccc1F)N1CCN(C(=O)C2CC2)CC1 [Olaparib] (partner 8 µM)
Summary of the method: (§1)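 After 5 days of treatment, lung cancer cells in 1536-well plates were fixed and stained in a single step (final 0.05% Triton X-100, 1% formaldehyde, 1 ug/ml Hoechst) and their nuclei counted on 4× images. Treatment had been applied by pin tool the day after seeding as one drug alone or as a fixed anchor-drug dose with five library-drug doses (not always all listed) in √10 steps. Relative viability is the nuclei count of treated wells divided by that of vehicle wells, and values are medians of duplicate plates.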

[1] = compound: CC(C)N(CCCNC(=O)Nc1ccc(C(C)(C)C)cc1)C[C@H]1O[C@@H](n2ccc3c(N)ncnc32)[C@H](O)[C@@H]1O + CC(=O)Nc1cccc(-n2c(=O)n(C3CC3)c(=O)c3c(Nc4ccc(I)cc4F)n(C)c(=O)c(C)c32)c1 [Trametinib] (partner 0.02 µM)
Summary of the method: as §1

[2] = compound: CC(C)N(CCCNC(=O)Nc1ccc(C(C)(C)C)cc1)C[C@H]1O[C@@H](n2ccc3c(N)ncnc32)[C@H](O)[C@@H]1O + COc1cccc2cc(-c3nc([C@H]4CC[C@H](C(=O)O)CC4)n4ncnc(N)c34)[nH]c12 [OSI-027] (partner 0.5 µM)
Summary of the method: as §1

[3] = compound: CC(C)N(CCCNC(=O)Nc1ccc(C(C)(C)C)cc1)C[C@H]1O[C@@H](n2ccc3c(N)ncnc32)[C@H](O)[C@@H]1O + C[C@@H](Oc1cc(-c2cnn(C3CCNCC3)c2)cnc1N)c1c(Cl)ccc(F)c1Cl [Crizotinib] (partner 1 µM)
Summary of the method: as §1

| Cell Line | relative viability (Shikonin + Olaparib; first compound 0.01 µM) | relative viability (Shikonin + Olaparib; first compound 0.1 µM) | relative viability (Shikonin + Olaparib; first compound 0.3162 µM) | relative viability (Shikonin + Olaparib; first compound 1 µM) | relative viability ([1]; first compound 0.08 µM) | relative viability ([1]; first compound 0.253 µM) | relative viability ([1]; first compound 0.8 µM) | relative viability ([1]; first compound 2.53 µM) | relative viability ([1]; first compound 8 µM) | relative viability ([2]; first compound 0.08 µM) | relative viability ([2]; first compound 0.253 µM) | relative viability ([2]; first compound 0.8 µM) | relative viability ([2]; first compound 2.53 µM) | relative viability ([2]; first compound 8 µM) | relative viability ([3]; first compound 0.08 µM) | relative viability ([3]; first compound 0.253 µM) | relative viability ([3]; first compound 0.8 µM) | relative viability ([3]; first compound 2.53 µM) | relative viability ([3]; first compound 8 µM) |
| --- | --- | --- | --- | --- | --- | --- | --- | --- | --- | --- | --- | --- | --- | --- | --- | --- | --- | --- | --- |
| COR-L23 | 0.401 | 0.306 | 0.307 | 0.24 | 0.664 | 0.374 | 0.631 | 0.67 | 0.519 | 0.758 | 0.739 | 0.697 | 0.735 | 0.689 | 0.601 | 0.724 | 0.765 | 0.755 | 0.574 |
| HCC-78 | 0.911 | 0.753 | 0.964 | 0.755 | 0.716 | 0.867 | 0.804 | 0.586 | 0.736 | 0.376 | 0.388 | 0.356 | 0.364 | 0.346 | 0.312 | 0.304 | 0.329 | 0.374 | 0.34 |
| PC-14 | 0.282 | 0.235 | 0.191 | 0.121 | 0.648 | 0.701 | 0.842 | 0.718 | 0.558 | 0.826 | 0.802 | 0.786 | 0.872 | 0.745 | 0.907 | 0.881 | 0.97 | 0.943 | 0.723 |
| NCI-H2126 | 0.953 | 1.14 | 0.943 | 0.92 | 0.551 | 0.572 | 0.555 | 0.577 | 0.58 | 0.627 | 0.77 | 0.734 | 0.715 | 0.672 | 1.01 | 0.986 | 1.06 | 0.992 | 0.959 |
| BEN | 1.08 | 1.03 | 1.02 | 1.01 | 1.01 | 0.92 | 0.96 | 1.26 | 1.08 | 0.301 | 0.277 | 0.298 | 0.294 | 0.275 | 0.836 | 0.768 | 0.825 | 0.715 | 0.921 |
| LCLC-103H | 0.793 | 0.94 | 0.788 | 0.839 | 0.679 | 0.708 | 0.662 | 0.653 | 0.679 | 0.447 | 0.58 | 0.495 | 0.451 | 0.467 | 0.946 | 0.93 | 0.914 | 1 | 0.872 |
| EKVX | 0.922 | 0.907 | 0.889 | 0.798 | 0.392 | 0.339 | 0.376 | 0.359 | 0.327 | 0.718 | 0.713 | 0.71 | 0.704 | 0.668 | 0.989 | 0.83 | 0.822 | 0.917 | 0.804 |
| LXF-289 | 1.11 | 0.966 | 1.11 | 1.06 | 0.661 | 0.684 | 0.651 | 0.732 | 0.71 | 0.791 | 0.797 | 0.852 | 0.828 | 0.742 | 0.781 | 0.893 | 0.834 | 0.837 | 0.78 |
| NCI-H727 | 0.685 | 0.737 | 0.648 | 0.583 | 0.36 | 0.424 | 0.416 | 0.349 | 0.396 | 0.635 | 0.597 | 0.521 | 0.495 | 0.666 | 0.767 | 0.837 | 0.899 | 0.93 | 0.854 |
| NCI-H1650 | 0.877 | 0.787 | 0.732 | 0.718 | 0.686 | 0.521 | 0.219 | 0.645 | 0.441 | 0.567 | 0.696 | – | 0.744 | 0.703 | 0.925 | 1.05 | – | 1.06 | 0.986 |
| NCI-H2087 | 0.696 | 0.544 | 0.592 | 0.551 | 0.165 | 0.191 | 0.225 | 0.232 | 0.22 | 0.443 | 0.707 | 0.402 | 0.653 | 0.586 | 0.981 | 1.04 | 1.16 | 0.945 | 0.795 |
| LC-2-ad | 0.736 | 0.872 | 0.689 | 0.765 | 0.848 | 0.936 | 0.895 | 0.917 | 0.855 | 0.845 | 0.823 | 0.892 | 0.816 | 0.855 | 0.442 | 0.506 | 0.444 | 0.445 | 0.407 |
| COR-L 105 | 0.672 | 0.796 | 0.558 | 0.606 | 0.492 | 0.402 | 0.496 | 0.465 | 0.537 | 0.682 | 0.581 | 0.664 | 0.427 | 0.648 | 0.671 | 0.823 | 0.82 | 0.724 | 0.846 |
| NCI-H1355 | 0.811 | 0.812 | 0.786 | 0.776 | 0.419 | 0.416 | 0.388 | 0.458 | 0.38 | 0.375 | 0.473 | 0.374 | 0.472 | 0.428 | 1.01 | 1.08 | – | 1.09 | 0.891 |
| H3255 | 0.552 | 0.542 | 0.597 | 0.509 | 0.492 | 0.593 | 0.483 | 0.587 | 0.49 | 0.564 | 0.614 | 0.685 | 0.543 | 0.538 | 0.763 | 0.76 | 0.959 | 0.717 | 0.735 |
| NCI-H2009 | 0.774 | 0.691 | 0.624 | 0.497 | 0.272 | 0.244 | 0.301 | 0.255 | 0.296 | 0.641 | 0.722 | 0.702 | 0.599 | 0.587 | 1.03 | 0.971 | 1.08 | 0.999 | 1.08 |
